From patent publication US9726659B2, “CMPF as a biomarker for diabetes and associated methods” (The Governing Council of the University of Toronto, priority 2012, dated 2017)

System: islets
Experiment: Insulin and proinsulin in the media of 24 hr treated islets
Assay type: cell-based, mouse
Conditions: 24 hr treatment
Experimental: A) Proinsulin in the media of 24 hr treated islets (n=4/group). B) Mitochondrial membrane potential (MMP) following acute addition of vehicle control or 200 μM of CMPF (N=3/group). C) ROS levels in 4- and 24-hour treated mouse islets with representative images (N=10-15 islets/mouse from 4 mice/group). D) Expression of antioxidant genes Cat and (e) Ucp2 (n=4/group). F) ROS accumulation in 24 hr-treated islets treated with 500 μM NAC (n=10 islets/mouse from 4 mice/group). G) GSIS and (h) total insulin content from 24 hr-treated islets co-treated with 500 μM NAC (n=4/group). Western blots showing (i) Ser9 phosphorylation of GSK3β, (j) Ser473 phosphorylation of AKT (n=3/group). K) Immunofluorescent staining showing nuclear translocation of FOXO1 and (l) PDX1 with CMPF and NAC treatment (n=3-6). Quantification of nuclear percentage of (m) FOXO1 and (n) PDX1 based on immunofluorescent staining with CMPF and NAC treatment. […]
Lower total insulin content may be due to beta-cell exhaustion caused by over-stimulation and/or defective insulin production. To determine the mechanism through which CMPF diminishes insulin content, we measured insulin in the media following 24 hr treatment. […] To first determine if CMPF is metabolized by beta-cells, we measured changes in mitochondrial membrane potential (MMP) in mouse islets acutely treated with CMPF. […]

CCCc1oc(CCC(=O)O)c(C(=O)O)c1C [CMPF, 3-carboxy-4-methyl-5-propyl-2-furanpropanoic acid]
accumulation of total insulin in the media: no difference | proinsulin in the media: substantially more proinsulin
